The target in assay [1] is Glutamate receptor 2 (Homo sapiens, UniProt P42262). The experiment in a line: Binding affinity of compound was determined against Ionotropic glutamate receptor AMPA 2 using cell membranes prepared from HEK293 cells.
Assay [2] addresses Glutamate receptor 1 (Homo sapiens, UniProt P42261). Nature of the assay: biochemical.
Description: Binding affinity of compound was determined against Ionotropic glutamate receptor AMPA 1 using cell membranes prepared from HEK293 cells
Assay [3] concerns the target T1, Glutamate receptor ionotropic, kainate 5 (Homo sapiens, UniProt Q16478).
T1 sequence (Q16478 whole entry): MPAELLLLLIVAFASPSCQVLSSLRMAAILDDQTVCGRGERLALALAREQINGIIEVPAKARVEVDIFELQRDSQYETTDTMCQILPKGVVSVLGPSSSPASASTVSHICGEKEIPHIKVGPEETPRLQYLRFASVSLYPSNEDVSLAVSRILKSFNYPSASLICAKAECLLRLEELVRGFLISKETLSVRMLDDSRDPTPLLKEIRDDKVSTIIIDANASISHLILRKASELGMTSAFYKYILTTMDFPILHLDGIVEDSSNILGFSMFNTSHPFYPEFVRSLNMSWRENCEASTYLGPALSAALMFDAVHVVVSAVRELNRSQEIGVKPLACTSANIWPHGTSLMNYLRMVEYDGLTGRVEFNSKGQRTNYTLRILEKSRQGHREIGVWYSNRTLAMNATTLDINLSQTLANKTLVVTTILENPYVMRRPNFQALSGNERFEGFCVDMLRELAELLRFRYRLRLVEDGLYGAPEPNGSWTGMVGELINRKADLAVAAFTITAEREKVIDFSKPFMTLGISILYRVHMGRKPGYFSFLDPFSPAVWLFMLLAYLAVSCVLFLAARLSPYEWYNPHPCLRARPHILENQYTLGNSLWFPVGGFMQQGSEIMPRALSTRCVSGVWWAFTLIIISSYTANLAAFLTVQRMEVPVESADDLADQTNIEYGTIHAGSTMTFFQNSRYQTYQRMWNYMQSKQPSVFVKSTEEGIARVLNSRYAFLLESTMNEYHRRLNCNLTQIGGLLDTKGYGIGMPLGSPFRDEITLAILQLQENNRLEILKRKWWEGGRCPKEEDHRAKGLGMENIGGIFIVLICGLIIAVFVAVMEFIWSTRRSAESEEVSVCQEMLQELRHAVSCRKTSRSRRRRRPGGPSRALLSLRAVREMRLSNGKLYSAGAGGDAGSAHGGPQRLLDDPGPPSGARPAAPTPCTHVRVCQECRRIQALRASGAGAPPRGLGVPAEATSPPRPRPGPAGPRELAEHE
The experiment in a line: Binding affinity of compound was determined against Glutamate receptor (KA2) using cell membranes prepared from HEK293 cells.

Assay [4] addresses Glutamate receptor 4 (Homo sapiens, UniProt P48058). The experiment in a line: biochemical.
Description: Binding affinity of compound was determined against Ionotropic glutamate receptor AMPA 4 using cell membranes prepared from HEK293 cells
For assay [5], the target named is T2, Glutamate receptor ionotropic, kainate 2 (Homo sapiens, UniProt Q13002). The experiment in a line: biochemical.
T2 sequence (Q13002 whole entry): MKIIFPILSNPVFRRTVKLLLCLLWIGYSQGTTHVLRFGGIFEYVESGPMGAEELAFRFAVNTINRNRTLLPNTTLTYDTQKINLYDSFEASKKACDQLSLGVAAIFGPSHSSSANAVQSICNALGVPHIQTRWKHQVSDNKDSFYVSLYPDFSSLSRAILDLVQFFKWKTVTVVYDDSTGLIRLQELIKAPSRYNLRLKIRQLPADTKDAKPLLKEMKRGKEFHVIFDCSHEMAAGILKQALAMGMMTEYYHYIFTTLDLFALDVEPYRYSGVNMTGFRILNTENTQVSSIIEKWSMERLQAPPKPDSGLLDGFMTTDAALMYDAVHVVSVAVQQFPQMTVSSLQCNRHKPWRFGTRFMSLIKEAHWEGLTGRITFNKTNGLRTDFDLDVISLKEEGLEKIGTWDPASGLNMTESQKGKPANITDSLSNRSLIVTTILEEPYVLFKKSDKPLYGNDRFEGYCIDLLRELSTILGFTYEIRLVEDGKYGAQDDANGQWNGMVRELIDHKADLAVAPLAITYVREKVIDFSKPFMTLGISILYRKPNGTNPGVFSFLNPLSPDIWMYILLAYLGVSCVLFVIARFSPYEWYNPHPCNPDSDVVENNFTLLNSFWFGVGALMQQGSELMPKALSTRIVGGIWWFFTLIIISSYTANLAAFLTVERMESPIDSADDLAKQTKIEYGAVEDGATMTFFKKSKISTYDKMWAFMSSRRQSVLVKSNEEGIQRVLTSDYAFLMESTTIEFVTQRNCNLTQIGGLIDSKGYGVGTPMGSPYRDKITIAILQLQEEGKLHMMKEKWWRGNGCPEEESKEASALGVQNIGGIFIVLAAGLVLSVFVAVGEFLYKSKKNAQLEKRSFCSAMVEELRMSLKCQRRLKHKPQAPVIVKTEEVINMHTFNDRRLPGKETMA
Description: Binding affinity of compound was determined against Ionotropic glutamate receptor ionotropic kainate 2 using cell membranes prepared from HEK293 cells
Assay [6] deals with Glutamate receptor ionotropic, kainate 1 (Homo sapiens, UniProt P39086). The experiment in a line: biochemical.
Glutamate receptor ionotropic, kainate 1, sequence (P39086 whole entry): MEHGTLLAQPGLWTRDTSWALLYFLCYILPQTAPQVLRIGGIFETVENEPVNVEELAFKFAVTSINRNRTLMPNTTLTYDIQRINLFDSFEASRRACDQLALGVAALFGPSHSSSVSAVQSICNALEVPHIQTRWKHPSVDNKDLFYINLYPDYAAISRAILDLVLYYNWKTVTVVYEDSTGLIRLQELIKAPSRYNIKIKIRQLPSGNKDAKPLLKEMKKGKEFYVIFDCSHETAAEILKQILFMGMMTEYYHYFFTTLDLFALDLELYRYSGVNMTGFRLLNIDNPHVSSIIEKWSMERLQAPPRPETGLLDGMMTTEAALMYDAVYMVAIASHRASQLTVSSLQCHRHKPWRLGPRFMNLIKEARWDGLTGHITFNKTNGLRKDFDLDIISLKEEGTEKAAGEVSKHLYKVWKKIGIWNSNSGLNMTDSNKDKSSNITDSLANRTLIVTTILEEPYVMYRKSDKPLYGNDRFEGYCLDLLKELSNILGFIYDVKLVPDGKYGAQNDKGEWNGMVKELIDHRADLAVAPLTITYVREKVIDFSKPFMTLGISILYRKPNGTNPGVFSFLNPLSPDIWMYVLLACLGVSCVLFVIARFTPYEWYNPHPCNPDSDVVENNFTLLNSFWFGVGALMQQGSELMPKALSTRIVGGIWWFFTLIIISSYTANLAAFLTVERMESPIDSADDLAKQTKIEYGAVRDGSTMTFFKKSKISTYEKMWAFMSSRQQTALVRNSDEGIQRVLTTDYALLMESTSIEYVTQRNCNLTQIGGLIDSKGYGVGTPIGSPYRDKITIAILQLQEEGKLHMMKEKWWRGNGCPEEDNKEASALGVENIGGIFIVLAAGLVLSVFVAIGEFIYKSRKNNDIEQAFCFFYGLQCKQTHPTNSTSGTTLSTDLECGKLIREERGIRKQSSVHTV
Description: Binding affinity of compound was determined against Ionotropic glutamate receptor ionotropic kainate 1 using cell membranes prepared from HEK293 cells
The nature of assay [7]: Selectivity of compound was determined as the ratio of Ki of Glutamate receptor 6 to that of Glutamate receptor 5.
The target in assay [8] is T1, Glutamate receptor ionotropic, kainate 5. The experiment in a line: Binding affinity of compound was determined against KA2 using cell membranes prepared from HEK293 cells.
The target of assay [9] is T2, Glutamate receptor ionotropic, kainate 2. The experiment in a line: Compound was tested for agonistic activity at Glutamate receptor 6 using HEK293 cells. It counts as functional, cell-based.
Assay [10] shares this target. Nature of the assay: Agonistic activity of compound on Glutamate receptor 6 using cell membranes prepared from HEK293 cells was expressed as percentage Rmax; ne means no effect. The assay is classed as functional, cell-based.

This is an account of results in ChEMBL document CHEMBL1133269, “4-Alkylidenyl glutamic acids, potent and selective GluR5 agonists” (Bioorg Med Chem Lett, 2000).

Active and inactive are the calls of the source. The rule behind the calls is not given here. Bounds are passed on as bounds.

Glutamate receptor 1, sequence (P42261 whole entry): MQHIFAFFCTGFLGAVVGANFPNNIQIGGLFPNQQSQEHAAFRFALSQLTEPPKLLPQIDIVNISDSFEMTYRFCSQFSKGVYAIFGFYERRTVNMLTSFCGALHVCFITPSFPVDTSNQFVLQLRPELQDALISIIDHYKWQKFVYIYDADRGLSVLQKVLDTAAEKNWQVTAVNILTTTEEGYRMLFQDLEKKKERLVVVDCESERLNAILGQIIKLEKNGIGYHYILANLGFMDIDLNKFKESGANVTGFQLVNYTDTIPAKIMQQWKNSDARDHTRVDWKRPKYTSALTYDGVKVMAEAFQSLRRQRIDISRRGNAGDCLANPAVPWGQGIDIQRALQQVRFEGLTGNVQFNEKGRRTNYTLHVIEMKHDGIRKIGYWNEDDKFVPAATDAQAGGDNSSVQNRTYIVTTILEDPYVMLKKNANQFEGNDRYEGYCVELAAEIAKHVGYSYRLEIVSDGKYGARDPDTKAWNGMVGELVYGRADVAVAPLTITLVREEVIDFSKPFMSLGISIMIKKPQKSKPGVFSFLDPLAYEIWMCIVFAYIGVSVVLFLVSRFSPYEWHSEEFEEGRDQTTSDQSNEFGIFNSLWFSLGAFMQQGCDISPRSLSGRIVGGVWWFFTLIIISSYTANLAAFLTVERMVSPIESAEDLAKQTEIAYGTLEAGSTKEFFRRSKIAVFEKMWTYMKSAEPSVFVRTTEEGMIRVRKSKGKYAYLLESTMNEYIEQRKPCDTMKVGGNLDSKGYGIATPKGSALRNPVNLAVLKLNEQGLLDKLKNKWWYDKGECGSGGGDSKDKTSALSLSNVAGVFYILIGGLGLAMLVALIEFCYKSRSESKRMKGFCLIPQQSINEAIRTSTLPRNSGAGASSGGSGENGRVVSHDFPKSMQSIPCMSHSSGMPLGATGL
Glutamate receptor 4, sequence (P48058 whole entry): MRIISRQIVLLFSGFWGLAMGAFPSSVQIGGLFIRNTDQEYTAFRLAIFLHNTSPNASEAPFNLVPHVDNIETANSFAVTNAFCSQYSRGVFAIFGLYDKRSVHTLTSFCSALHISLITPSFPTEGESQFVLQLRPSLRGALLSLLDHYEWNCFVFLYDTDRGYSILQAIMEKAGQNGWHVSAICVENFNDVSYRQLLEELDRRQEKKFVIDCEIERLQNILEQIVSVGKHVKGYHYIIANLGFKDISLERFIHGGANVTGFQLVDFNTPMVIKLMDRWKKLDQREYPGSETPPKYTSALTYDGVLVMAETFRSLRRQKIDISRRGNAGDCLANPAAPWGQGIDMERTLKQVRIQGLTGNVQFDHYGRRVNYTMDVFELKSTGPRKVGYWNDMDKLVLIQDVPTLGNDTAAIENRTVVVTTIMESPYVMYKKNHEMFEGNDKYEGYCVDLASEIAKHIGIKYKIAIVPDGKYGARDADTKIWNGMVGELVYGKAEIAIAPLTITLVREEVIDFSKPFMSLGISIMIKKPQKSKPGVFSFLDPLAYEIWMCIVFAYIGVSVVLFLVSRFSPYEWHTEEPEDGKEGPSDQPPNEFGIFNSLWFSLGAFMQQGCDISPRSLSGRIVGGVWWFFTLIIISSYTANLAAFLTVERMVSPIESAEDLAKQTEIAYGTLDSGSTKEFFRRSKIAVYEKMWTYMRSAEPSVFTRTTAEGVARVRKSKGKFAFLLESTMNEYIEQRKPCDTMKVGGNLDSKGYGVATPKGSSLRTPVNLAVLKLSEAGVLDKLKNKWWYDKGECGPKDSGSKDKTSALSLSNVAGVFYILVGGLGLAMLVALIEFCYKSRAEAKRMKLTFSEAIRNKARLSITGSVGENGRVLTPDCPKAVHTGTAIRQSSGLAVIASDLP
Glutamate receptor 2, sequence (P42262 whole entry): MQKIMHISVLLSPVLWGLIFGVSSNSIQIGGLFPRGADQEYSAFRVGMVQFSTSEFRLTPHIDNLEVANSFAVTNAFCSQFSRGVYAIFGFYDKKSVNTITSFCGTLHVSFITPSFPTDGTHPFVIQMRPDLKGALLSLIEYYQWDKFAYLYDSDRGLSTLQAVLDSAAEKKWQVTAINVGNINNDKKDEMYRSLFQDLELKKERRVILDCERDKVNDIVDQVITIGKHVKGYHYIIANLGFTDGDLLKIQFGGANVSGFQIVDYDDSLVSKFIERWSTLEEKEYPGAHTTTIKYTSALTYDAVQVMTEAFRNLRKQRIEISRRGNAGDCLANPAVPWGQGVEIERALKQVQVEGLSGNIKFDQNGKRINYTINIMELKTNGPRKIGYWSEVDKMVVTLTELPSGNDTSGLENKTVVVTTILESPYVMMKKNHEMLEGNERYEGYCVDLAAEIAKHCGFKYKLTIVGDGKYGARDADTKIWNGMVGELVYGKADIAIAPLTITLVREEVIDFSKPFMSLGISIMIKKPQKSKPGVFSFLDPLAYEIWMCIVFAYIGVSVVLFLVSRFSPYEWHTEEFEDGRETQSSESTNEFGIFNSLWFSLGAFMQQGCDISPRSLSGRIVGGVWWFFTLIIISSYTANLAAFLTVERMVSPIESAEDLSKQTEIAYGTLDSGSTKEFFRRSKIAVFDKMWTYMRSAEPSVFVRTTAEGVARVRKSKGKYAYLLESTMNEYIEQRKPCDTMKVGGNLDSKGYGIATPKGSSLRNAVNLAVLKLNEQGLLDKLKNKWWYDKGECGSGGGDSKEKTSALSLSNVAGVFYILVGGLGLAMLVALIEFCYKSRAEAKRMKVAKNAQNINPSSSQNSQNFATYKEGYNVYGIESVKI

Broadly, the Ki is the equilibrium dissociation constant of an inhibitor or competing ligand from its target. Regarding `N[C@@H](C[C@@H](C/C=C/c1ccc2ccccc2c1)C(=O)O)C(=O)O`, the Ki in [1] and in [2] was greater than 10 µM in each case.
Regarding `CCC(CC)=C(C[C@H](N)C(=O)O)C(=O)O`, the Ki in assay [1] is 281 µM; in assay [3], 21.4 µM; in assay [4], 4.71 µM; in assay [5], 207 µM; in assay [2], greater than 100 µM.
As to `N[C@@H](CC(C(=O)O)=C1CCCCC1)C(=O)O`, the Ki was 5.13 µM in assay [6] and 255 µM in assay [5]. Further, the Ratio in assay [7] is 49.7.
For `CC1(C)CCC/C1=C(\C[C@H](N)C(=O)O)C(=O)O`, the results for the Ki in assay [6] and in assay [5] were 3.62 µM and 46.3 µM, respectively. In addition, the Ratio in assay [7] was found to be 12.8.
`C=C(C)[C@H]1CN[C@H](C(=O)O)[C@H]1CC(=O)O` [KAINIC ACID]: in [3], the Ki is 0.08 µM.
For `C/C=C(/C[C@H](N)C(=O)O)C(=O)O`, the Ki in assay [6] amounted to 2.2 µM; in [5], 2.5 µM. Further, in assay [7], the Ratio came out at 1.14.
Regarding `CCCC/C=C(/C[C@H](N)C(=O)O)C(=O)O`, the affinity in assay [5], expressed as Ki, was 125 µM.
`N[C@@H](C/C(=C/CCC(c1ccccc1)c1ccccc1)C(=O)O)C(=O)O`: the Ki was greater than 1 µM in assay [6] and greater than 10 µM in [5]. For the same molecule, the Ratio in assay [7] was 10.
On to `N[C@@H](C/C(=C\CCc1ccccc1)C(=O)O)C(=O)O`, for which the affinity in assay [5] corresponds to a Ki of 205 µM.
As to `CC(C)/C=C(\C[C@H](N)C(=O)O)C(=O)O`, the Ki was determined as 7.5 µM in assay [8]; 3.7 µM in assay [1]; 5.6 µM in assay [4]; 82.5 µM in assay [5]; 0.7 µM in assay [2].
`N[C@@H](C/C(=C\C=C\c1ccccc1)C(=O)O)C(=O)O` had a Ki in [5] greater than 100 µM.
One may read the EC50 as the concentration at which the effect is half-maximal. Higher therefore signals a need for much substance. In [9], `CC/C=C(/C[C@H](N)C(=O)O)C(=O)O` had an EC50 greater than 300 µM. The molecule also gave a Ki in [5] of 18 µM.
For `N[C@@H](C/C(=C\CCC(c1ccccc1)c1ccccc1)C(=O)O)C(=O)O`, the Ki in assay [6] was greater than 1 µM; in assay [5], greater than 100 µM. Also, the Ratio in [7] stood at 100.
`N[C@@H](CC(C(=O)O)=C1CCC1)C(=O)O` showed a Ki in assay [5] greater than 100 µM.
Regarding `N[C@@H](C/C(=C\C1CCCC1)C(=O)O)C(=O)O`, the affinity in assay [5] corresponds to a Ki of 87.6 µM.
On to `CC1(C)CCC/C1=C(/C[C@H](N)C(=O)O)C(=O)O`, for which the values for the Ki in [6] and in assay [5] were 0.236 µM and greater than 100 µM, respectively. In assay [7], the Ratio was greater than 424.
For the molecule `CC(C)(C)/C=C(\C[C@H](N)C(=O)O)C(=O)O`, in assay [5], the Ki was greater than 100 µM.
Take `CC(C)/C=C(/C[C@H](N)C(=O)O)C(=O)O`: the Ki in [1] is 44.9 µM; in assay [3] it was 82.2 µM; in assay [4], 10.3 µM; in [5], greater than 500 µM; in assay [2] it was 113 µM.
Consider `N[C@@H](C/C(=C\C1CCCCC1)C(=O)O)C(=O)O`, for which the Ki in assay [6] is 6.06 µM; in [5], greater than 100 µM. Moreover, the Ratio in [7] is greater than 16.5.
Consider `C/C=C/C=C(/C[C@H](N)C(=O)O)C(=O)O`, for which the Ki in assay [5] worked out at 16.3 µM.
Take `N[C@@H](CC(C(=O)O)=C1CCCC1)C(=O)O`: in assay [9], the EC50 was greater than 100 µM. Besides, the Rmax entry in [10] was “inactive”. The Ki in [1] is 3.68 µM; in assay [3], 10 µM; in assay [4], 0.533 µM; in assay [5], greater than 100 µM; in assay [2] it was 1.1 µM.
`N[C@@H](C/C(=C\c1ccc(Cl)cc1)C(=O)O)C(=O)O` had a Ki in [5] of 193 µM.
Regarding `CC(C)=C(C[C@H](N)C(=O)O)C(=O)O`, the values for the inhibitory constant (Ki) in [6] and in assay [5] were 13.9 µM and greater than 400 µM, respectively. The Ratio in assay [7] was greater than 28.8.
Regarding `CC(C)C/C=C(\C[C@H](N)C(=O)O)C(=O)O`, in [5], the Ki came to 634 µM.
The molecule `CCC/C=C(/C[C@H](N)C(=O)O)C(=O)O` yielded a Ki in assay [5] of 57.2 µM.
`C=C(C[C@H](N)C(=O)O)C(=O)O` came in with a Ki in [5] of 0.45 µM.
